The record followed here is PubChem BioAssay AID1996.

Values after ≈ are worked out from the molar mass of the structure shown.

The conditions of this data set: buffer; pH 7.4; 200.0 µM.
What is called solubility (kinetic) is the concentration staying in solution when a stock, usually in DMSO, is diluted into the medium. Regarding `CC1(C)CC(NC(=O)c2ccccc2)CC(C)(C)N1`, the kinetic solubility was more than 39.1 µg/mL. `O=C(NCN1CCOCC1)c1cnccn1` displayed a kinetic solubility of 30.6 µg/mL (≈ 138 µM). Then `Oc1ccc(CNc2ccccc2)c2cccnc12`, with 3.5 µg/mL (≈ 14 µM). Then `CNCc1ccccc1Sc1ccc(O)c(O)c1.O=C([O-])/C=C\C(=O)[O-]`, with 31.5 µg/mL; and `CCOC(=O)C1=C(COC(=O)c2cccc(Cl)c2)NC(=O)NC1C` (stereo not drawn), with 46.2 µg/mL (≈ 131 µM); and `CCCCCCCn1ccc(O)c(CC(=O)OC)c1=O`, with more than 42.2 µg/mL. Under `CCOC(=O)Cn1c(C)c(Br)c(COC)c(C#N)c1=O` stands more than 51.5 µg/mL; under `CN(CC(=O)Nc1cccc(F)c1)C(=O)C1=COCCO1`, more than 44.1 µg/mL; under `CC(C)NC(=O)c1ccc(COc2ccc(C(C)(C)C)cc2)o1`, 0.7 µg/mL (≈ 2.22 µM). `Cc1ccc(C(=O)Oc2ccc(C(=S)N3CCOCC3)cc2)cc1` returned a kinetic solubility of 2.5 µg/mL (≈ 7.32 µM).

The compound `On1c(-c2ccccc2)nc2ncccc21` displayed a solubility (kinetic) of more than 31.7 µg/mL. Then `CCc1ccc(CNC(=O)C(=O)NCC2CCCO2)cc1` (stereo not drawn), with 17.6 µg/mL (≈ 60.6 µM). Under `CCOC(=O)c1csc(NC(=O)c2cc(=O)c3ccccc3o2)n1` stands 11.5 µg/mL (≈ 33.4 µM).

Turning to `CC(=O)Nc1ccc(NC(=O)CSCc2ccccc2Cl)cc1`, the solubility (kinetic) stood at 12.7 µg/mL (≈ 36.4 µM).

As for `O=S(=O)(Nc1cccc(Oc2ccc(Cl)cc2)n1)c1ccc(F)cc1`, the solubility (kinetic) is 41.9 µg/mL (≈ 111 µM). Then `O=C(Nc1ccc2[nH]c(=O)[nH]c2c1)c1cccc([N+](=O)[O-])c1`, with 1.2 µg/mL (≈ 4.02 µM); and `COc1ccc2[nH]c3c(c2c1)CCNC3C.Cl` (stereo not drawn), with 30.1 µg/mL. Regarding `CC(O)c1nc2cc([N+](=O)[O-])ccc2n1Cc1ccccc1` (stereo not drawn), the solubility (kinetic) amounted to 6.9 µg/mL (≈ 23.2 µM). Then `Cc1cccc(N2CCN(C(=O)c3ccnn3C)CC2)c1C`, with more than 44.8 µg/mL.

`CC1CC(C)(C)NC(=S)N1CCC(=O)N1CCc2ccccc21` (stereo not drawn) yielded a solubility (kinetic) of 14.6 µg/mL (≈ 44 µM).

Turning to `COc1cc(S(=O)(=O)Nc2cccnc2)ccc1Cl`, the solubility (kinetic) is more than 44.8 µg/mL.

`O=C(O)/C(=C\c1ccco1)NC(=O)c1ccco1`: the solubility (kinetic) was more than 37.1 µg/mL. Then `O=C1OCc2ccc(NS(=O)(=O)c3ccc(C(F)(F)F)cc3)cc21`, with more than 53.6 µg/mL; and `CCOC(=O)c1c(NC(=O)COC(=O)c2cccnc2OCC)sc(C(=O)N(CC)CC)c1C`, with 4.6 µg/mL (≈ 9.36 µM). Then `NS(=O)(=O)c1ccc(NC(=O)COC(=O)c2ncc(Cl)c(Cl)c2Cl)cc1`, with 54.7 µg/mL (≈ 125 µM); and `Cc1ccc(S(=O)(=O)c2c(C)c(C)c(C)[nH]c2=O)cc1`, with 29.7 µg/mL (≈ 102 µM); and `Cc1nnc(N(C)C(=O)c2ccc3c(c2)OCO3)s1`, with more than 41.6 µg/mL. Take `CCn1c(=O)c2sccc2n(Cc2cccc(C)c2)c1=O`: the kinetic solubility was determined as 9 µg/mL (≈ 30 µM).

`COc1ccc2oc(C(=O)N3CCN(S(=O)(=O)c4ccc(F)cc4)CC3)c(C)c2c1`: the solubility (kinetic) came out at 7.5 µg/mL (≈ 17.3 µM). Then `O=C(COC(=O)/C=C/c1ccccc1)NCc1ccc2c(c1)OCO2`, with 4.8 µg/mL (≈ 14.1 µM). Then `Nc1nc(-c2ccc(F)cc2)cs1`, with more than 29.1 µg/mL; and `CC(=O)c1ccc(OCC(=O)Nc2ccc3nc(C)sc3c2)cc1`, with 1.4 µg/mL (≈ 4.11 µM). On to `CSc1ncc(C(=O)Nc2ccccc2F)c(-c2ccccc2)n1`, for which the solubility (kinetic) was 1.3 µg/mL (≈ 3.83 µM). Regarding `CN(C)c1ccc(/C=C/C(=O)c2ccc(O)cc2)cc1[N+](=O)[O-]`, the kinetic solubility stood at 1.2 µg/mL (≈ 3.84 µM). In turn, `COc1cc2sc(C)nc2c2ccccc12` came in with a solubility (kinetic) of 2.9 µg/mL (≈ 12.6 µM). Under `CC(C)(C)c1ccc(-c2nc3n(c(=O)c2C#N)CCS3)cc1` stands 3.5 µg/mL (≈ 11.2 µM); under `O=C(CSc1ncnc2sccc12)NC1CCS(=O)(=O)C1` (stereo not drawn), more than 51.5 µg/mL.

The compound `Clc1ccc(C(CCN2CCCC2)Cc2ccccc2)cc1` (stereo not drawn) registered a solubility (kinetic) of 29.8 µg/mL (≈ 94.9 µM). Under `C=CCNC(=O)C1CCN(c2cnccn2)CC1` stands more than 36.9 µg/mL; under `CC(CN1CCN(C)CC1)OC(=O)c1ccc(F)cc1.Cl` (stereo not drawn), more than 47.5 µg/mL. Compound `CC(C)Oc1ccccc1C1NC(=O)CCC1[N+](=O)[O-]` (stereo not drawn) yielded a kinetic solubility of more than 41.7 µg/mL.

On to `COc1ccc(Nc2nc(C)cc(C)c2C(N)=O)cc1OC`, for which the solubility (kinetic) is 43.8 µg/mL (≈ 145 µM).

Compound `C=CCN=C1CC(C)(C)C(C(=O)OC)C(O)=C1C(=O)CCC` (stereo not drawn) had a solubility (kinetic) of more than 46.1 µg/mL. Then `CC(=O)NCCc1c(C)n(Cc2ccccc2)c2ccccc12`, with more than 46 µg/mL; and `O=C(NCC(c1ccco1)N1CCCC1)c1cc(=O)[nH]c2ccccc12` (stereo not drawn), with more than 52.7 µg/mL; and `Cc1ccoc1C(=O)Nc1cccc2ccccc12`, with 33.9 µg/mL (≈ 135 µM). In turn, `COc1cc(C)c(S(=O)(=O)NCCCn2ccnc2)cc1C` returned a kinetic solubility of 39.6 µg/mL (≈ 122 µM).

With `CC1(C)CC(NS(=O)(=O)c2ccc(F)cc2)CC(C)(C)N1`, the kinetic solubility came out at 47.1 µg/mL (≈ 150 µM). Then `O=c1oc2ccccc2c(NCc2ccc(Cl)cc2)c1[N+](=O)[O-]`, with 1.4 µg/mL (≈ 4.23 µM); and `Cc1ccc(NC(=S)c2ccc3ccccc3n2)c(C)c1`, with less than 0.3 µg/mL. Under `COc1ccc2c(COC(=O)[C@H](C)NS(=O)(=O)c3ccccc3F)cc(=O)oc2c1` stands 59.1 µg/mL (≈ 136 µM); under `CC1CCCCC12NC(=O)N(CC(=O)c1ccc(Cl)s1)C2=O` (stereo not drawn), 8.5 µg/mL (≈ 24.9 µM).

On to `O=C(NCCOc1ccccc1F)Nc1ccc(Br)cc1`, for which the solubility (kinetic) is 2.1 µg/mL (≈ 5.95 µM). Under `COc1ccc2c(c1)c(CC[NH3+])c(C)n2Cc1ccccc1.[Cl-]` stands 44.5 µg/mL; under `C=CCn1c(O)c(C(C)=NC2CCN(Cc3ccccc3)CC2)c(=O)[nH]c1=O`, 53.6 µg/mL (≈ 140 µM).

Take `CN(C)S(=O)(=O)c1cccc(NC(=O)NCCCl)c1`: the solubility (kinetic) was more than 45.9 µg/mL.

As for `O=C(CCCc1nc(-c2ccc(Cl)cc2)no1)NC1CCCCC1`, the kinetic solubility was determined as 2.1 µg/mL (≈ 6.04 µM). Under `Cc1cc(=O)[nH]c(SCC(=O)Nc2ccc3c(c2)OCCO3)n1` stands more than 50 µg/mL; under `CC(NC(=O)c1ccccc1)C(=O)N/N=C/c1ccco1` (stereo not drawn), more than 42.8 µg/mL. Compound `C=CCN=C1CCCc2c1[nH]c1ccc(C)cc21` gave a kinetic solubility of 10.3 µg/mL (≈ 43.2 µM). Under `CC(C)c1ccc(CNc2ncc(Br)cn2)cc1` stands 0.4 µg/mL (≈ 1.31 µM); under `O=C(CSc1ccc2ccccc2n1)NCCCN1CCCC1=O`, more than 51.5 µg/mL.

Compound `CCC/C(O)=C1\C(=O)CC(C)(C)CC1=NCc1ccccc1` displayed a solubility (kinetic) of more than 44.9 µg/mL.

`COc1cc(C)ccc1OCC(=O)OCC(=O)c1ccc[nH]1` returned a kinetic solubility of more than 45.5 µg/mL. With `O=C(Nc1cccc(S(=O)(=O)N2CCOCC2)c1)C12CC3CC(CC(C3)C1)C2`, the kinetic solubility is 2.2 µg/mL (≈ 5.44 µM).

`CC(Sc1nc(N)cc(=O)[nH]1)C(=O)N1CCOCC1` (stereo not drawn): the solubility (kinetic) was more than 42.6 µg/mL. Then `O=C(c1ccc2ccccc2n1)N1CCN(S(=O)(=O)c2ccc(Cl)cc2)CC1`, with 27.4 µg/mL (≈ 65.9 µM). Under `Cc1ccccc1C(=O)NCC(C)NC(=O)c1ccccc1C` (stereo not drawn) stands 42.4 µg/mL (≈ 137 µM); under `O=C(O)C1CCN(S(=O)(=O)c2cccc3cccnc23)CC1`, more than 48.1 µg/mL. In the case of `CCn1c(=O)c2ccccc2n(Cc2ccccc2C)c1=O`, the kinetic solubility came to 3.1 µg/mL (≈ 10.5 µM). In turn, `CCN(CC)C(=O)CSC(Nc1cccc(F)c1)=C(C#N)C#N` showed a kinetic solubility of more than 49.9 µg/mL. Under `CC(C)C(=O)OCC(=O)NCc1ccccc1Cl` stands 37.6 µg/mL (≈ 139 µM); under `O=C(C[n+]1ccc(/C=N/O)cc1)N1CCCCC1.[Cl-]`, more than 42.6 µg/mL. Then `CCN(C(=O)COC(=O)c1ccc(SC)cc1OC)C1CCS(=O)(=O)C1` (stereo not drawn), with more than 60.2 µg/mL; and `S=C(NCCc1ccccc1)Nc1ccccc1`, with 31.5 µg/mL (≈ 123 µM); and `CCCC(=O)N1CCN(Cc2nc3cc([N+](=O)[O-])ccc3n2C)CC1`, with more than 51.8 µg/mL. Then `O=C(Nc1ccc(Cl)cc1F)c1ccc2c(c1)C(=O)N(Cc1ccncc1)C2=O`, with 10.8 µg/mL (≈ 26.4 µM); and `Cc1cccc(C)c1NC(=O)NC1(C(=O)N2CCCCC2)CCCCC1`, with 45.6 µg/mL (≈ 128 µM); and `Cc1cc(C)nc(/N=C(\N)Nc2ccc(S(N)(=O)=O)cc2)n1`, with 44.6 µg/mL (≈ 139 µM). In turn, `CC(NC(=O)CCC(=O)NCc1ccc(F)cc1)c1ccccc1` (stereo not drawn) came in with a solubility (kinetic) of more than 49.3 µg/mL. In turn, `COc1ccc(CN2CC(C(=O)NCCC(C)C)CC2=O)cc1` (stereo not drawn) registered a solubility (kinetic) of more than 47.8 µg/mL. Consider `Cc1cccc(C)c1NC(=O)CNCC(=O)N(C)C`, for which the solubility (kinetic) is more than 39.5 µg/mL.

`O=C1/C(=C/c2ccsc2)N2CCC1CC2` displayed a solubility (kinetic) of 25.9 µg/mL (≈ 118 µM). For `CCOC(=O)N1CCN(C(=O)CSc2nc3nc(C)cc(C)n3n2)CC1`, the kinetic solubility was more than 56.8 µg/mL. `COc1ccccc1NC(=O)CSc1nnc(-c2ccccn2)o1`: the kinetic solubility is more than 51.4 µg/mL. Under `COc1ccc(S(=O)(=O)NCC2CCCO2)cc1Cl` (stereo not drawn) stands 34.2 µg/mL (≈ 112 µM); under `CCOc1ccc(N=C2SCC(=O)N2CC)cc1`, 33.6 µg/mL (≈ 127 µM). Take `FC(F)(F)c1ccccc1N1CC1c1ccncc1` (stereo not drawn): the solubility (kinetic) is 31 µg/mL (≈ 117 µM). Under `CCOC(=O)CNC(=S)NN(C)C` stands more than 30.8 µg/mL. Consider `O=C(COC(=O)CC1CC2CCC1C2)Nc1ccccc1[N+](=O)[O-]` (stereo not drawn), for which the kinetic solubility was 2.9 µg/mL (≈ 8.73 µM). Then `Cc1cccc(-c2noc(CCC(=O)NC3CCCC3)n2)c1`, with more than 44.9 µg/mL; and `O=C(Nc1cccc2cccnc12)c1cc(F)c(F)cc1Cl`, with less than 0.3 µg/mL. The compound `CC(C)(C)P(=O)(N1CCOCC1)N1CCOCC1` registered a kinetic solubility of more than 41.4 µg/mL.

For the compound `O=C(NCC(=O)N1CC=C(c2ccccc2)CC1)c1ccc(F)cc1`, the kinetic solubility came out at 9 µg/mL (≈ 26.6 µM). As for `O=C(c1ccccc1F)N1CCC2(CC1)OCCO2`, the solubility (kinetic) is more than 39.8 µg/mL. With `CCOC(=O)C1(Cc2ccccc2)CCCN(CCO)C1` (stereo not drawn), the solubility (kinetic) was more than 43.7 µg/mL.

With `Cc1nc(NC(=O)C2CCCCC2C(=O)O)sc1C` (stereo not drawn), the kinetic solubility amounted to 40.5 µg/mL (≈ 143 µM). Under `Cc1csc(SC(C)C(=O)Nc2ccc3c(c2)OCCO3)n1` (stereo not drawn) stands more than 50.5 µg/mL; under `CC1CN(C(=O)/C=C/c2ccccc2Cl)CC(C)O1` (stereo not drawn), 36.5 µg/mL (≈ 130 µM). With `COc1cccc(N=C2CC(C)(C)CC(=O)/C2=C(/O)c2ccccc2)c1`, the solubility (kinetic) is 0.9 µg/mL (≈ 2.58 µM). As to `Cc1cccc(N2CN=C3SCC(=O)N3C2)c1`, the kinetic solubility is more than 37.1 µg/mL. Then `CC(=O)OC1CC(c2cc(C(C)(C)C)c(O)c(C(C)(C)C)c2)=NO1` (stereo not drawn), with 7.7 µg/mL (≈ 23.1 µM).

The compound `CCn1c2ccccc2c2cc(C#N)c(N)nc21` had a kinetic solubility of 0.7 µg/mL (≈ 2.96 µM).
